In patent publication US5165931A, “Peptifluorin and neopeptifluorin” (E. R. Squibb & Sons, Inc., priority 1991, dated 1992):

Experiments:
bacteria = assay: antibacterial activity (general statement); format: cell-based
Description: (§1) The following methodology was used to determine the minimum inhibitory concentration (hereinafter referred to as MIC) of the compound of this invention against bacteria. The test organisms were grown in 20 ml of Antibiotic Assay Broth (Difco) by inoculating the broth (in tubes) with a loopful of the organism from a BHI (Difco) agar slant. The inoculated tubes were incubated at 37° C. for 18 to 24 hours. These cultures were assumed to contain 10^9 colony forming units (CFU) per ml. The cultures were diluted 1:100 to give a final inoculum level of 10^7 CFU; dilutions were made with Yeast Beef Broth (Difco). The test compound was dissolved in an appropriate diluent at a concentration of 1,000 μg/ml. Two-fold dilutions were made in Yeast Beef Broth (Difco), resulting in
(§2) a range from 1000 μg/ml to 0.5 μg/ml. A 1.5 ml portion of each dilution was placed into individual petri dishes to which 13.5 ml of K-10 agar was added. The composition of K-10 agar is:
The final drug concentration in the agar ranged from 100 μg/ml to 0.05 μg/ml. Organism growth control plates containing agar only were prepared and inoculated before and after the test plates. […]
The plates were incubated at 37° C. for 18 hours and the MICs determined. […]

mevalonate kinase = assay: inhibition of mevalonate kinase from yeast; format: biochemical
Enterobacter cloacae = assay: agar dilution MIC assay, bacteria; format: cell-based; settings: strain SC 8236; K-10 agar, 37° C., 18 hours
Description: as §1, §2
(§3) The medium was sterilized at 121° C. for 15 minutes at 15 pounds psi.
(§4) The final drug concentration in the agar ranged from 100 μg/ml to 0.05 μg/ml. Organism growth control plates containing agar only were prepared and inoculated before and after the test plates. The organisms were applied to the agar surface of each plate with a Denly Multipoint Inoculator (which delivers approximately 0.001 ml of each inoculum) resulting in a final inoculum of 10^4 CFU on the agar surface.
(§5) The plates were incubated at 37° C. for 18 hours and the MICs determined. The MIC is the lowest concentration of compound inhibiting growth of the organism.
(§6) The results of the agar dilution assays with bacteria are: […]

Escherichia coli = assay: agar dilution MIC assay, bacteria; format: cell-based; settings: K-10 agar, 37° C., 18 hours
Description: as §1, §2, §3, §4, §5, §6

Micrococcus luteus = assay: agar dilution MIC assay, bacteria; format: cell-based; settings: strain SC 2495; K-10 agar, 37° C., 18 hours
Description: as §1, §2, §3, §4, §5, §6

Salmonella typhosa = assay: agar dilution MIC assay, bacteria; format: cell-based; settings: strain SC 1195; K-10 agar, 37° C., 18 hours
Description: as §1, §2, §3, §4, §5, §6

Streptococcus faecalis = assay: agar dilution MIC assay, bacteria; format: cell-based; settings: strain SC 9011; K-10 agar, 37° C., 18 hours
Description: as §1, §2, §3, §4, §5, §6

Streptococcus agalactiae = assay: agar dilution MIC assay, bacteria; format: cell-based; settings: strain SC 14,008; K-10 agar, 37° C., 18 hours
Description: as §1, §2, §3, §4, §5, §6

Shigella sonnei = assay: agar dilution MIC assay, bacteria; format: cell-based; settings: strain SC 8449; K-10 agar, 37° C., 18 hours
Description: as §1, §2, §3, §4, §5, §6

Klebsiella pneumoniae = assay: agar dilution MIC assay, bacteria; format: cell-based; settings: K-10 agar, 37° C., 18 hours
Description: as §1, §2, §3, §4, §5, §6

Staphylococcus aureus = assay: agar dilution MIC assay, bacteria; format: cell-based; settings: K-10 agar, 37° C., 18 hours
Description: as §1, §2, §3, §4, §5, §6

Candida krusei = assay: agar dilution MIC assay, yeasts; format: cell-based; settings: strain SC 2967; 37° C., 36-48 hours
Description: as §1, §2, §4, §5
(§7) The methodology described above was modified in the assay for activity against yeasts. Fresh F-4 slants of the test organisms were obtained from frozen vials (-70° C.). The cultures were inoculated into tubes of F-4 broth and incubated at 37° C. for 18 to 24 hours, at which time the average cell count was assumed to be 5×10^7 CFU per ml. These were diluted 1:50 with fresh F-4 broth to give an inoculum level of 1×10^6 CFU per mL. The organisms were then dispensed into a sterile template (0.8 ml per well) and delivered onto the surface of each plate containing test compound as described above with a Denly Multipoint Inoculator, resulting in a final inoculum of 10^3 CFU on the agar surface.
(§8) The composition of the F-4 broth is:
(§9) The medium was sterilized at 121° C. for 15 minutes at 15 psi.
(§10) F-4 agar has the same composition as the broth but with the addition of 15 g agar per liter.
(§11) The results of the yeast, agar dilution assays (determined after incubation at 37° C. for 36-48 hours) are: […]

Saccharomyces cerevisiae = assay: agar dilution MIC assay, yeasts; format: cell-based; settings: 37° C., 36-48 hours
Description: as §1, §2, §4, §5, §7, §8, §9, §10, §11

Candida albicans = assay: agar dilution MIC assay, yeasts; format: cell-based; settings: 37° C., 36-48 hours
Description: as §1, §2, §4, §5, §7, §8, §9, §10, §11

Candida tropicalis = assay: agar dilution MIC assay, yeasts; format: cell-based; settings: 37° C., 36-48 hours
Description: as §1, §2, §4, §5, §7, §8, §9, §10, §11

Candida glabrata = assay: agar dilution MIC assay, yeasts; format: cell-based; settings: strain SC 11,267; 37° C., 36-48 hours
Description: as §1, §2, §4, §5, §7, §8, §9, §10, §11

yeasts = assay: antifungal activity (general statement); format: cell-based
Description: as §7

Row | Substance | antibacterial activity (bacteria) | inhibiting mevalonate kinase from yeast (mevalonate kinase) | MIC (Enterobacter cloacae) [µg/mL] | MIC (Escherichia coli; strain SC 8294) [µg/mL] | MIC (Escherichia coli; strain SC 10,857) [µg/mL] | MIC (Escherichia coli; strain SC 10,896) [µg/mL] | MIC (Micrococcus luteus) [µg/mL] | MIC (Salmonella typhosa) [µg/mL] | MIC (Streptococcus faecalis) [µg/mL] | MIC (Shigella sonnei) [µg/mL] | MIC (Klebsiella pneumoniae; strain SC 9527) [µg/mL] | MIC (Klebsiella pneumoniae; strain SC 10,440) [µg/mL] | MIC (Staphylococcus aureus; strain SC 1276) [µg/mL] | MIC (Staphylococcus aureus; strain SC 2399) [µg/mL] | MIC (Staphylococcus aureus; strain SC 2400) [µg/mL] | MIC (Candida krusei) [µg/mL] | MIC (Saccharomyces cerevisiae; strain SC 1600) [µg/mL] | MIC (Saccharomyces cerevisiae; strain SC 12,955) [µg/mL] | MIC (Saccharomyces cerevisiae; strain SGY 1139) [µg/mL] | MIC (Candida albicans; strain SC 5314) [µg/mL] | further results
1 | neopeptifluorin | broad spectrum antibacterial activity | moderately active | 12.5 | 50.0 | 12.5 | 12.5 | 6.3 | 100 | 6.3 | 25 | > 100 | 25.0 | 3.1 | 6.3 | 6.3 | 100 | 6.3 | 12.5 | 1.6 | 6.3 | MIC (Streptococcus agalactiae): 6.3 µg/mL; MIC (Candida albicans; strain SC 9177): 25.0 µg/mL; MIC (Candida albicans; strain SC 11,422): 12.5 µg/mL; MIC (Candida tropicalis; strain SC 8159): 6.3 µg/mL; MIC (Candida tropicalis; strain SC 9861): 3.1 µg/mL; MIC (Candida glabrata): 25.0 µg/mL; antifungal activity (yeasts): antifungal activity
2 | peptifluorin | broad spectrum antibacterial activity | moderately active | 25.0 | > 100.0 | 50.0 | 12.5 | 6.3 | > 100.0 | 6.3 | 25.0 | > 100.0 | 50.0 | 6.3 | 6.3 | 6.3 | 100 | 12.5 | 25.0 | 3.1 | 12.5 | MIC (Candida albicans; strain SC 9177): 25.0 µg/mL; MIC (Candida albicans; strain SC 11,422): 12.5 µg/mL; MIC (Candida tropicalis; strain SC 8159): 12.5 µg/mL; MIC (Candida tropicalis; strain SC 9861): 3.1 µg/mL; MIC (Candida glabrata): 12.5 µg/mL; antifungal activity (yeasts): antifungal activity
